Assay results: patent US10519152B2, “Compounds and their use in treating cancer” (AstraZeneca AB, priority 2017, dated 2019)

biological target: T1, recombinant human Estrogen Receptor alpha ligand binding domain, residues 307-554 (ER alpha-LBD (GST)) (Homo sapiens, UniProt P03372); assay: ERα binding assay (LanthaScreen TR-FRET competition); details: TR-FRET competition with Fluormone ES2 tracer, 4 hours at room temperature; single experiment or average of two or more
T1 construct: made in house
T1 sequence (P03372 307-554): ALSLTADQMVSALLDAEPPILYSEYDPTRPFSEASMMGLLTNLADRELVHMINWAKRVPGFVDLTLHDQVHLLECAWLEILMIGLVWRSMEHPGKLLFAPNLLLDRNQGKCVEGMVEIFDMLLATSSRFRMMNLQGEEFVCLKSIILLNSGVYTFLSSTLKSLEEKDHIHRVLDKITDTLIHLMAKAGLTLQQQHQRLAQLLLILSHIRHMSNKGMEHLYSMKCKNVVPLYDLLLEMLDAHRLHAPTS

SMILES | IC50 [nM]
Cc1ncsc1-c1ccc(CNC(=O)[C@@H]2C[C@@H](O)CN2C(=O)[C@@H](NC(=O)COCCOCCOCCOc2cc(F)c([C@@H]3c4[nH]c5ccccc5c4C[C@@H](C)N3CC(F)(F)F)c(F)c2)C(C)(C)C)cc1 [Example 95, (2S,4R)-1-((S)-2-(tert-Butyl)-14-(3,5-difluoro-4-((1R,3R)-3-methyl-2-(2,2,2-trifluoroethyl)-2,3,4,9-tetrahydro-1H-pyrido[3,4-b]indol-1-yl)phenoxy)-4-oxo-6,9,12-trioxa-3-azatetradecanoyl)-4-hydroxy-N-(4-(4-methylthiazol-5-yl)benzyl)pyrrolidine-2-carboxamide] | 1.2
Cc1ncsc1-c1ccc(CNC(=O)[C@@H]2C[C@@H](O)CN2C(=O)[C@@H](NC(=O)COCCOCCOCCNC(=O)/C=C/c2cc(F)c([C@@H]3c4[nH]c5ccccc5c4C[C@@H](C)N3CC(C)(C)F)c(F)c2)C(C)(C)C)cc1 [Example 63, (2S,4R)-1-((S,E)-2-(tert-butyl)-18-(3,5-difluoro-4-((1R,3R)-2-(2-fluoro-2-methylpropyl)-3-methyl-2,3,4,9-tetrahydro-1H-pyrido[3,4-b]indol-1-yl)phenyl)-4,16-dioxo-6,9,12-trioxa-3,15-diazaoctadec-17-enoyl)-4-hydroxy-N-(4-(4-methylthiazol-5-yl)benzyl)pyrrolidine-2-carboxamide, Trifluoroacetic Acid] | 1
Cc1ncsc1-c1ccc(CNC(=O)[C@@H]2C[C@@H](O)CN2C(=O)[C@@H](NC(=O)COCCO[C@@H](C)[C@H](C)OCCOc2cc(F)c([C@@H]3c4[nH]c5ccccc5c4C[C@@H](C)N3CC(C)(C)F)c(F)c2)C(C)(C)C)cc1 [Example 82, (2S,4R)-1-((2S,10S,11S)-2-(tert-butyl)-14-(3,5-difluoro-4-((1R,3R)-2-(2-fluoro-2-methylpropyl)-3-methyl-2,3,4,9-tetrahydro-1H-pyrido[3,4-b]indol-1-yl)phenoxy)-10,11-dimethyl-4-oxo-6,9,12-trioxa-3-azatetradecanoyl)-4-hydroxy-N-(4-(4-methylthiazol-5-yl)benzyl)pyrrolidine-2-carboxamide] | 0.9
Cc1ncsc1-c1ccc(CNC(=O)[C@@H]2C[C@@H](O)CN2C(=O)[C@@H](NC(=O)COCCCCOCCCOc2cc(F)c([C@@H]3c4[nH]c5ccccc5c4C[C@@H](C)N3CC(C)(C)F)c(F)c2)C(C)(C)C)cc1 [Example 93] | 0.7
Cc1ncsc1-c1ccc(CNC(=O)[C@@H]2C[C@@H](O)CN2C(=O)[C@@H](NC(=O)COCCOCCOCCCNC(=O)c2cc(F)c([C@@H]3c4[nH]c5ccccc5c4C[C@@H](C)N3CC(C)(C)F)c(F)c2)C(C)(C)C)cc1 [Example 84, (2S,4R)-1-((S)-16-(tert-Butyl)-1-(3,5-difluoro-4-((1R,3R)-2-(2-fluoro-2-methylpropyl)-3-methyl-2,3,4,9-tetrahydro-1H-pyrido[3,4-b]indol-1-yl)phenyl)-1,14-dioxo-6,9,12-trioxa-2,15-diazaheptadecan-17-oyl)-4-hydroxy-N-(4-(4-methylthiazol-5-yl)benzyl)pyrrolidine-2-carboxamide] | 1.3
Cc1ncsc1-c1ccc(CNC(=O)[C@@H]2C[C@@H](O)CN2C(=O)[C@@H](NC(=O)c2cnn(CCOCCNC(=O)/C=C/c3cc(F)c([C@@H]4c5[nH]c6ccccc6c5C[C@@H](C)N4CC(C)(C)F)c(F)c3)c2)C(C)(C)C)cc1 [Example 64, 1-(2-(2-((E)-3-(3,5-difluoro-4-((1R,3R)-2-(2-fluoro-2-methylpropyl)-3-methyl-2,3,4,9-tetrahydro-1H-pyrido[3,4-b]indol-1-yl)phenyl)acrylamido)ethoxy)ethyl)-N—((S)-1-((2S,4R)-4-hydroxy-2-((4-(4-methylthiazol-5-yl)benzyl)carbamoyl)pyrrolidin-5-yl)-3,3-dimethyl-1-oxobutan-2-yl)-1H-pyrazole-4-carboxamide, Trifluoroacetic Acid] | 0.4
Cc1ncsc1-c1ccc(CNC(=O)[C@@H]2C[C@@H](O)CN2C(=O)[C@@H](NC(=O)COCCOCCOCCNC(=O)c2cc(F)c([C@@H]3c4[nH]c5ccccc5c4C[C@@H](C)N3CC(C)(C)F)c(F)c2)C(C)(C)C)cc1 [Example 91, (2S,4R)-1-((S)-15-(tert-Butyl)-1-(3,5-difluoro-4-((1R,3R)-2-(2-fluoro-2-methylpropyl)-3-methyl-2,3,4,9-tetrahydro-1H-pyrido[3,4-b]indol-1-yl)phenyl)-1,13-dioxo-5,8,11-trioxa-2,14-diazahexadecan-16-oyl)-4-hydroxy-N-(4-(4-methylthiazol-5-yl)benzyl)pyrrolidine-2-carboxamide] | 1.3
Cc1ncsc1-c1ccc(CNC(=O)[C@@H]2C[C@@H](O)CN2C(=O)[C@@H](NC(=O)COCCCCCOc2cc(F)c([C@@H]3c4[nH]c5ccccc5c4C[C@@H](C)N3CC3(F)CC3)c(F)c2)C(C)(C)C)cc1 [Example 79, (2S,4R)-1-((S)-2-(2-((5-(3,5-difluoro-4-((1R,3R)-2-((1-fluorocyclopropyl)methyl)-3-methyl-2,3,4,9-tetrahydro-1H-pyrido[3,4-b]indol-1-yl)phenoxy)pentyl)oxy)acetamido)-3,3-dimethylbutanoyl)-4-hydroxy-N-(4-(4-methylthiazol-5-yl)benzyl)pyrrolidine-2-carboxamide] | 0.9
Cc1ncsc1-c1ccc(CNC(=O)[C@@H]2C[C@@H](O)CN2C(=O)[C@@H](NC(=O)COCCCOCCOc2cc(F)c([C@@H]3c4[nH]c5ccccc5c4C[C@@H](C)N3CC(F)(F)F)c(F)c2)C(C)(C)C)cc1 [Example 94, (2S,4R)-1-((S)-2-(2-(3-(2-(3,5-Difluoro-4-((1R,3R)-3-methyl-2-(2,2,2-trifluoroethyl)-2,3,4,9-tetrahydro-1H-pyrido[3,4-b]indol-1-yl)phenoxy)ethoxy)propoxy)acetamido)-3,3-dimethylbutanoyl)-4-hydroxy-N-(4-(4-methylthiazol-5-yl)benzyl)pyrrolidine-2-carboxamide] | 0.9
Cc1ncsc1-c1ccc(CNC(=O)[C@@H]2C[C@@H](O)CN2C(=O)[C@@H](NC(=O)COCCOCCCCCOc2cc(F)c([C@@H]3c4[nH]c5ccccc5c4C[C@@H](C)N3CC(C)(C)F)c(F)c2)C(C)(C)C)cc1 [Example 97, (2S,4R)-1-((S)-2-(2-(2-((5-(3,5-Difluoro-4-((1R,3R)-2-(2-fluoro-2-methylpropyl)-3-methyl-2,3,4,9-tetrahydro-1H-pyrido[3,4-b]indol-1-yl)phenoxy)pentyl)oxy)ethoxy)acetamido)-3,3-dimethylbutanoyl)-4-hydroxy-N-(4-(4-methylthiazol-5-yl)benzyl)pyrrolidine-2-carboxamide] | 0.5
Cc1ncsc1-c1ccc(CNC(=O)[C@@H]2C[C@@H](O)CN2C(=O)[C@@H](NC(=O)COCCOCCOCCOCC(=O)Nc2cc(F)c([C@@H]3c4[nH]c5ccccc5c4C[C@@H](C)N3CC(C)(C)F)c(F)c2)C(C)(C)C)cc1 [Example 68, N1-(3,5-difluoro-4-((1R,3R)-2-(2-fluoro-2-methylpropyl)-3-methyl-2,3,4,9-tetrahydro-1H-pyrido[3,4-b]indol-1-yl)phenyl)-N14-((S)-1-((2S,4R)-4-hydroxy-2-((4-(4-methylthiazol-5-yl)benzyl)carbamoyl)pyrrolidin-1-yl)-3,3-dimethyl-1-oxobutan-2-yl)-3,6,9,12-tetraoxatetradecanediamide] | 1
Cc1ncsc1-c1ccc(CNC(=O)[C@@H]2C[C@@H](O)CN2C(=O)[C@@H](NC(=O)COCCCCCCCOc2cc(F)c([C@@H]3c4[nH]c5ccccc5c4C[C@@H](C)N3CC(F)(F)CO)c(F)c2)C(C)(C)C)cc1 [Example 78, (2S,4R)-1-((S)-2-(2-((7-(4-((1R,3R)-2-(2,2-Difluoro-3-hydroxypropyl)-3-methyl-2,3,4,9-tetrahydro-1H-pyrido[3,4-b]indol-1-yl)-3,5-difluorophenoxy)heptyl)oxy)acetamido)-3,3-dimethylbutanoyl)-4-hydroxy-N-(4-(4-methylthiazol-5-yl)benzyl)pyrrolidine-2-carboxamide] | 0.5
Cc1ncsc1-c1ccc(CNC(=O)[C@@H]2C[C@@H](O)CN2C(=O)[C@@H](NC(=O)COCc2ccc(COc3cc(F)c([C@@H]4c5[nH]c6ccccc6c5C[C@@H](C)N4CC(C)(C)F)c(F)c3)nc2)C(C)(C)C)cc1 [Example 85, (2S,4R)-1-((S)-2-(2-((6-((3,5-difluoro-4-((1R,3R)-2-(2-fluoro-2-methylpropyl)-3-methyl-2,3,4,9-tetrahydro-1H-pyrido[3,4-b]indol-1-yl)phenoxy)methyl)pyridin-3-yl)methoxy)acetamido)-3,3-dimethylbutanoyl)-4-hydroxy-N-(4-(4-methylthiazol-5-yl)benzyl)pyrrolidine-2-carboxamide] | 0.9
Cc1ncsc1-c1ccc([C@H](C)NC(=O)[C@@H]2C[C@@H](O)CN2C(=O)[C@@H](NC(=O)COCCOCCOCCOc2cc(F)c([C@@H]3c4[nH]c5ccccc5c4C[C@@H](C)N3CC(C)(C)F)c(F)c2)C(C)(C)C)cc1 [Example 3, (2S,4R)-1-((S)-2-(tert-Butyl)-14-(3,5-difluoro-4-((1R,3R)-2-(2-fluoro-2-methylpropyl)-3-methyl-2,3,4,9-tetrahydro-1H-pyrido[3,4-b]indol-1-yl)phenoxy)-4-oxo-6,9,12-trioxa-3-azatetradecanoyl)-4-hydroxy-N—((S)-1-(4-(4-methylthiazol-5-yl)phenyl)ethyl)pyrrolidine-2-carboxamide] | 0.8
